Data published in paper PMC5391474, “Investigation of the Role of Protein Kinase D in Human Rhinovirus Replication” (Journal of Virology, 2017).

Columns and labels:
Experiment in all cases: biochemical
Parameters in all cases: in vitro kinase selectivity panel, protein and lipid kinases, single concentration, ATP at Km
Details in all cases: ATP at Km
[1] = target: HIPK1(h) (Homo sapiens, UniProt Q86Z02)
Summary of the method: (§1)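 Single-point screen against a protein and lipid kinase panel: inhibitor at 1 μM. ATP concentration for every kinase equivalent to its Km.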

[2] = target: Fer(h) (Homo sapiens, UniProt P16591)
Summary of the method: as §1

[3] = target: T1, c-RAF(h) (Homo sapiens, UniProt P04049)
T1 construct: gene RAF1
Summary of the method: as §1

[4] = target: T2, CK1δ(h) (Homo sapiens, UniProt P48730)
T2 construct: gene CSNK1D
T2 sequence (P48730 whole entry): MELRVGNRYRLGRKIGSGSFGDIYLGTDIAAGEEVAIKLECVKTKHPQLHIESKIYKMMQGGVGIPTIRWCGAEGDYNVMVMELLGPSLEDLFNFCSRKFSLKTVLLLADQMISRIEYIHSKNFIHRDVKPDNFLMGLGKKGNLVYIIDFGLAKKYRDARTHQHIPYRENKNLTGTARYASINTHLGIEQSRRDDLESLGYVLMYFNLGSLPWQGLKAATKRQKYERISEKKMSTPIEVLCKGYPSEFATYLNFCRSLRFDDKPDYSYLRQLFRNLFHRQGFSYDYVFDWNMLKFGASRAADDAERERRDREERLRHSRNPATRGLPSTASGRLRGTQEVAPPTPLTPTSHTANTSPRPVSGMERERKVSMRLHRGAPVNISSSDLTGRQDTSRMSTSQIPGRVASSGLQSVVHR
Summary of the method: as §1

[5] = target: T3, Yes(h) (Homo sapiens, UniProt P07947)
T3 construct: gene YES1
T3 sequence (P07947 whole entry): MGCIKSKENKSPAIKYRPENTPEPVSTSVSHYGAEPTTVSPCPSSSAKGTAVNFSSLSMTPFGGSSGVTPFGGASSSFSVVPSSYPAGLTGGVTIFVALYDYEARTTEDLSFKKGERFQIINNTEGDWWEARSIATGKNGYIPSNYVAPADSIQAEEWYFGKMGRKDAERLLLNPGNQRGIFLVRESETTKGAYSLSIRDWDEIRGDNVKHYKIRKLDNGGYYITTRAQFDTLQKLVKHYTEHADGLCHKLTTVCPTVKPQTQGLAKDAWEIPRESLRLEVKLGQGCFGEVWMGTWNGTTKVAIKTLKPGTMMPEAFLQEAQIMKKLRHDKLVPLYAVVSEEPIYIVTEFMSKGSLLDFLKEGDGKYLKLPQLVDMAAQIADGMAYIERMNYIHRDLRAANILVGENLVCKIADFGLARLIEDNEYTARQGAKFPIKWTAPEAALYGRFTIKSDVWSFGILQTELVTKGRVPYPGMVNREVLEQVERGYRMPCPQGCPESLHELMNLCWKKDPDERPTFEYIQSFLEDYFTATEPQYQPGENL
Summary of the method: as §1

[6] = target: Fes(h) (Homo sapiens, UniProt P07332)
Chain of Fes(h) (P07332 whole entry): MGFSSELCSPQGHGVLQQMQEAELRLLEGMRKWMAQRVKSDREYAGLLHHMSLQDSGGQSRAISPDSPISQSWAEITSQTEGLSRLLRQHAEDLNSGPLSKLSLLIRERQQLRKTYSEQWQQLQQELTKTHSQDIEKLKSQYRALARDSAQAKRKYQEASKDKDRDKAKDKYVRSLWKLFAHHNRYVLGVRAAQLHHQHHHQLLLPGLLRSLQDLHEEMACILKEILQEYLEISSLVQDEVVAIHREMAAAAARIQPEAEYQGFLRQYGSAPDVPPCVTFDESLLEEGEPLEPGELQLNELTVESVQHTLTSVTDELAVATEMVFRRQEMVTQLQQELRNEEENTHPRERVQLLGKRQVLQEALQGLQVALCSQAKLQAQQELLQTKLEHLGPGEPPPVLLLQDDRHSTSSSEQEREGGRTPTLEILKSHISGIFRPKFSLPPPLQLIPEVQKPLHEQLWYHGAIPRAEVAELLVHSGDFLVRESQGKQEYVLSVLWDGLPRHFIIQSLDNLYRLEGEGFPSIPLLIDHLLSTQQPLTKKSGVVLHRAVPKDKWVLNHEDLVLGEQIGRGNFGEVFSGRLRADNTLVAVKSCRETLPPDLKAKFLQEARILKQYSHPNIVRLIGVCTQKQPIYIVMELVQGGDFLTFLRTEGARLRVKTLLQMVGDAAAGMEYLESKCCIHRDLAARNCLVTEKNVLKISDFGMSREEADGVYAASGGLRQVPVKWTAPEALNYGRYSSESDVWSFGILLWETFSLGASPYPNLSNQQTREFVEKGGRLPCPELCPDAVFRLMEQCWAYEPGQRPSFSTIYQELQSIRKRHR
Summary of the method: as §1

[7] = target: T4, CaMKI(h) (Homo sapiens, UniProt Q14012)
T4 construct: gene CAMK1
Summary of the method: as §1

[8] = target: T5, IKKα(h) (Homo sapiens, UniProt O15111)
T5 construct: gene CHUK
T5 sequence (O15111 whole entry): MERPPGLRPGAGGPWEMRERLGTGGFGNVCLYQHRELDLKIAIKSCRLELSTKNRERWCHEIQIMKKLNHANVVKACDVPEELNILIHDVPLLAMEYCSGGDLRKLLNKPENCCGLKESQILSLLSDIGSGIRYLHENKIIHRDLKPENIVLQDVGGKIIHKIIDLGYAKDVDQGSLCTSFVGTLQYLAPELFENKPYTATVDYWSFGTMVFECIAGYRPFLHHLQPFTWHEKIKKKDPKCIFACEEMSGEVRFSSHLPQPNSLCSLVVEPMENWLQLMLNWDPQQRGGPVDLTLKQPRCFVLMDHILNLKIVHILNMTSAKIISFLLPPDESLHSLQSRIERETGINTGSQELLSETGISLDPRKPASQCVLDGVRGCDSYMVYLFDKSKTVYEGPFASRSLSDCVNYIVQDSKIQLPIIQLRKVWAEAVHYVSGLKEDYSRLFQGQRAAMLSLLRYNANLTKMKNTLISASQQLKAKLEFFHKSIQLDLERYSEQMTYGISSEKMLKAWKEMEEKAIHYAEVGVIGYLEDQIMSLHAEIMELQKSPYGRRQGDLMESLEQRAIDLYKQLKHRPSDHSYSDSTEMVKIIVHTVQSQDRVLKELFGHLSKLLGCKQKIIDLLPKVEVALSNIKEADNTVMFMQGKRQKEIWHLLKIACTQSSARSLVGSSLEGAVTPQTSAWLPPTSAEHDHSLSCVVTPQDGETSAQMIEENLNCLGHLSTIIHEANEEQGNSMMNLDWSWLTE
Summary of the method: as §1

[9] = target: T6, PKCι(h) (Homo sapiens, UniProt P41743)
T6 construct: gene PRKCI
Summary of the method: as §1

[10] = target: Flt1(h) (Homo sapiens, UniProt P17948)
Summary of the method: as §1

[11] = target: FGFR4(h) (Homo sapiens, UniProt P22455)
Chain of FGFR4(h) (P22455 whole entry): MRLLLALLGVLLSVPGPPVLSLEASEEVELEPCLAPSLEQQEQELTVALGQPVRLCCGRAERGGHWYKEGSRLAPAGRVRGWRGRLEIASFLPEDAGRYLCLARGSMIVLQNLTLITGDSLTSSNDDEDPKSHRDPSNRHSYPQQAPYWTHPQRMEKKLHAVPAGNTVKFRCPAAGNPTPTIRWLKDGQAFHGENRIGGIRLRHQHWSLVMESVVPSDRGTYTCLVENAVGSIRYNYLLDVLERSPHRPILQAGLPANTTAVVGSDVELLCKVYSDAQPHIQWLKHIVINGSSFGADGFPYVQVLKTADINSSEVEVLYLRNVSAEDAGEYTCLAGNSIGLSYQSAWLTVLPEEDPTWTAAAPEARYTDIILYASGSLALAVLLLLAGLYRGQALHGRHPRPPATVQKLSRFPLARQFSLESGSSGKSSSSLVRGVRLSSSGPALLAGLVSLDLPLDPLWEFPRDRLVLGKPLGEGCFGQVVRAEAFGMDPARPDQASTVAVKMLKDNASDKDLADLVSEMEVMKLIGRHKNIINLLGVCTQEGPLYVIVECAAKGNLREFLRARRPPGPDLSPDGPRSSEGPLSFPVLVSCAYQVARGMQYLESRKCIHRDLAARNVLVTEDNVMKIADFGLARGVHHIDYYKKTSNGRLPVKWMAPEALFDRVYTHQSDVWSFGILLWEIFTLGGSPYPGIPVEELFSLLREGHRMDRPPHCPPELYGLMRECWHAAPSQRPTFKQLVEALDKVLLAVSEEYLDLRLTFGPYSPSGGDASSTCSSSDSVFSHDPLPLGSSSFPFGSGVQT
Summary of the method: as §1

[12] = target: T7, Mer(h) (Homo sapiens, UniProt Q12866)
T7 construct: gene MERTK
T7 sequence (Q12866 whole entry): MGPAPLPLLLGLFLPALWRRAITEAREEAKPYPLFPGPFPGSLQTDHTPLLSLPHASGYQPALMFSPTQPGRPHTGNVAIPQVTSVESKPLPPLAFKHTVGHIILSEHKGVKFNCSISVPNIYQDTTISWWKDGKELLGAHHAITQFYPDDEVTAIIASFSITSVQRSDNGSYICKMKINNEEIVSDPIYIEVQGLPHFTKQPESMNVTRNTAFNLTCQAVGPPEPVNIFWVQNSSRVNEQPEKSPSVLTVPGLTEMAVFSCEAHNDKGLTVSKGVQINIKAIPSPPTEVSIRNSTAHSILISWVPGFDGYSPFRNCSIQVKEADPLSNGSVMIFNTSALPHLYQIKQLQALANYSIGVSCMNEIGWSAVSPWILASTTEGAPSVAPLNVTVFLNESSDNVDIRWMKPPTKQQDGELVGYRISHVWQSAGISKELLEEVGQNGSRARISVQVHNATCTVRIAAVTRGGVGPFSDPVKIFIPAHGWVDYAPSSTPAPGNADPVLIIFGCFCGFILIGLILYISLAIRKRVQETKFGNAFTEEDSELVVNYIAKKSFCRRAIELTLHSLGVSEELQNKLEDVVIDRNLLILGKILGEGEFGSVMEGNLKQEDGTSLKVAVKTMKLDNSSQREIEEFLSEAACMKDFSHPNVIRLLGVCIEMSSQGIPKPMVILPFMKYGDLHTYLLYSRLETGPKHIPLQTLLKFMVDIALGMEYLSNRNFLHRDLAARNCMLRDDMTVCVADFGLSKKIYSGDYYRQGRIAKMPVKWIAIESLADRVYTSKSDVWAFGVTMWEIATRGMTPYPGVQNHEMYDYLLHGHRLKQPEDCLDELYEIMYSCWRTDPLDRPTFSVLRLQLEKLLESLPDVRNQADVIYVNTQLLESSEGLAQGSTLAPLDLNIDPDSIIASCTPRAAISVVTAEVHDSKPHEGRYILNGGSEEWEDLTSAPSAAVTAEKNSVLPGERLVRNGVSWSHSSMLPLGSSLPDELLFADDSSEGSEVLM
Summary of the method: as §1

[13] = target: T8, PIK3CA / p85 (h) (Homo sapiens, UniProt P42336)
T8 construct: p110alpha/p85
Summary of the method: as §1

[14] = target: Flt4(h) (Homo sapiens, UniProt P35916)
Summary of the method: as §1

[15] = target: T9, GSK3β(h) (Homo sapiens, UniProt P49841)
T9 construct: gene GSK3B
T9 sequence (P49841 whole entry): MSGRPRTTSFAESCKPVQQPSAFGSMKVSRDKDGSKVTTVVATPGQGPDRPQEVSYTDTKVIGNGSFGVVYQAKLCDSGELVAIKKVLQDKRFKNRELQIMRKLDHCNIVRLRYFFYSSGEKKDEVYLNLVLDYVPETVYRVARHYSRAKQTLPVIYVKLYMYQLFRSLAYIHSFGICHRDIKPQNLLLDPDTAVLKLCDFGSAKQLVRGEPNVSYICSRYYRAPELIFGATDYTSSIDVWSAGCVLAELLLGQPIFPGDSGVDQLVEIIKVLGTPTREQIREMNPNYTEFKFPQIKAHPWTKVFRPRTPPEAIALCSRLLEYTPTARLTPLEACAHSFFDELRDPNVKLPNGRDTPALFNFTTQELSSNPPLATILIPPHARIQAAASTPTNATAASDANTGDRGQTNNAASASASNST
Summary of the method: as §1

[16] = target: T10, PDGFRα(h) (Homo sapiens, UniProt P16234)
T10 construct: gene PDGFRA
Summary of the method: as §1

[17] = target: DGKB (Homo sapiens, UniProt Q9Y6T7)
Summary of the method: as §1

[18] = target: T11, cSRC(h) (Homo sapiens, UniProt P12931)
T11 construct: gene SRC
Summary of the method: as §1

Work on `CC[C@@H](N)CNc1ccnc(-c2cc(-c3cnn(C)c3)ccc2O)n1` [CRT0066101] yielded an inhibition at 1 µM [1] of 23%, an inhibition at 1 µM [2] of -25% and an inhibition at 1 µM [3] of 4%. For the same molecule, the inhibition at 1 µM [4] was 13%, the inhibition at 1 µM [5] was 40% and the inhibition at 1 µM [6] was -20%. It also gave an inhibition at 1 µM [7] of 2%, an inhibition at 1 µM [8] of 66% and an inhibition at 1 µM [9] of 10%. It also gave an inhibition at 1 µM [10] of -6%, an inhibition at 1 µM [11] of -2% and an inhibition at 1 µM [12] of 66%. It also gave an inhibition at 1 µM [13] of -1%, an inhibition at 1 µM [14] of 22% and an inhibition at 1 µM [15] of 18%. The inhibition at 1 µM [16] was 14%, the inhibition at 1 µM [17] was -9% and the inhibition at 1 µM [18] was 3%.
